PubChem BioAssay AID256 (DTP/NCI, 2004)
Several values for one entry are separate records, joined by “and”; a condition that tells them apart may be missing. Equal values may be shown once. Inconclusive results and toxic doses are left out. How the source made its calls: active means survival T/C of 150% or more; inactive means T/C below 125% in these data.

System: CD2F1 mice, L1210 leukemia ip, survival T/C
Test: NCI In Vivo Anticancer Drug Screen. Data for tumor model L1210 Leukemia (intraperitoneal) in CD2F1 (CDF1) mice
Conditions: higher = longer survival
Procedure, shortened: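 Antitumor effect is scored in animals hosting a serially transplanted tumor. Values compare compound-dosed animals against vehicle-only controls as a simple quotient.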

[1] = endpoint: mean survival time, dose: 75.0 mg/kg/injection, schedule: Q01DX001 (ip), vehicle: other
[2] = endpoint: mean survival time, dose: 150.0 mg/kg/injection, schedule: Q01DX001 (ip), vehicle: other
[3] = endpoint: mean survival time, dose: 100.0 mg/kg/injection, schedule: Q04DX003 (ip), vehicle: saline with Tween-80
[4] = endpoint: mean survival time, dose: 200.0 mg/kg/injection, schedule: Q04DX003 (ip), vehicle: saline with Tween-80
[5] = endpoint: mean survival time, dose: 400.0 mg/kg/injection, schedule: Q04DX003 (ip), vehicle: saline with Tween-80
[6] = endpoint: mean survival time, dose: 100.0 mg/kg/injection, schedule: Q01DX009 (ip), vehicle: saline with Tween-80
[7] = endpoint: mean survival time, dose: 200.0 mg/kg/injection, schedule: Q01DX009 (ip), vehicle: saline with Tween-80
[8] = endpoint: mean survival time, dose: 400.0 mg/kg/injection, schedule: Q01DX009 (ip), vehicle: saline with Tween-80
[9] = endpoint: mean survival time, dose: 100.0 mg/kg/injection, schedule: Q01DX001 (ip), vehicle: saline
[10] = endpoint: mean survival time, dose: 200.0 mg/kg/injection, schedule: Q01DX001 (ip), vehicle: saline
[11] = endpoint: mean survival time, dose: 400.0 mg/kg/injection, schedule: Q01DX001 (ip), vehicle: saline
[12] = endpoint: mean survival time, dose: 25.0 mg/kg/injection, schedule: Q04DX002 (ip), vehicle: saline with Tween-80
[13] = endpoint: mean survival time, dose: 50.0 mg/kg/injection, schedule: Q04DX002 (ip), vehicle: saline with Tween-80
[14] = endpoint: mean survival time, dose: 50.0 mg/kg/injection, schedule: Q01DX009 (ip), vehicle: saline with Tween-80

Measured: T/C

CC(CN(C)C)c1ccccn1 (stereo unspecified)
inactive: [1] 106 % of control | [2] 106 % of control | endpoint: mean survival time, dose: 300.0 mg/kg/injection, schedule: Q01DX001 (ip), vehicle: other 106 % of control

COC(=O)C1C2C(=O)NC(=O)C2C(c2ccc(-c3ccccc3)cc2)N1C1CCCCC1 (stereo unspecified)
inactive: [3] 105 % of control | [4] 100 % of control | [5] 103 % of control

CC(C)[Si](F)(c1ccc(Br)cc1)C(C)C
inactive: [3] 108 % of control | [4] 106 % of control | [5] 93 % of control

CC1(CCO)NC(=O)NC1=O (stereo unspecified)
inactive: endpoint: mean survival time, dose: 100.0 mg/kg/injection, schedule: Q01DX009 (ip), vehicle: saline sonified 97 % of control | endpoint: mean survival time, dose: 100.0 mg/kg/injection, schedule: Q04DX003 (ip), vehicle: saline 100 % of control | endpoint: mean survival time, dose: 200.0 mg/kg/injection, schedule: Q01DX009 (ip), vehicle: saline sonified 97 % of control | endpoint: mean survival time, dose: 200.0 mg/kg/injection, schedule: Q04DX003 (ip), vehicle: saline 96 % of control | endpoint: mean survival time, dose: 400.0 mg/kg/injection, schedule: Q01DX009 (ip), vehicle: saline sonified 97 % of control | endpoint: mean survival time, dose: 400.0 mg/kg/injection, schedule: Q04DX003 (ip), vehicle: saline 100 % of control

[N-]=[N+]=[N-]
inactive: endpoint: median survival time, dose: 0.75 mg/kg/injection, schedule: Q01DX009 (ip), vehicle: saline 101 % of control | endpoint: median survival time, dose: 1.5 mg/kg/injection, schedule: Q01DX009 (ip), vehicle: saline 101 % of control | endpoint: median survival time, dose: 3.0 mg/kg/injection, schedule: Q01DX009 (ip), vehicle: saline 93 % of control | endpoint: median survival time, dose: 6.0 mg/kg/injection, schedule: Q01DX009 (ip), vehicle: saline 103 % of control | endpoint: median survival time, dose: 12.0 mg/kg/injection, schedule: Q01DX009 (ip), vehicle: saline 92 % of control

CCC1=C[C@H]2CN(CCc3c([nH]c4ccccc34)[C@@](C(=O)OC)(c3cc4c(cc3OC)N(C)[C@H]3[C@@](O)(C(=O)OC)[C@H](OC(C)=O)[C@]5(CC)C=CCN6CC[C@]43[C@@H]65)C2)C1
active: endpoint: mean survival time, dose: 2.0 mg/kg/injection, schedule: Q01DX009 (ip), vehicle: water 161 % of control
inactive: endpoint: mean survival time, dose: 0.25 mg/kg/injection, schedule: Q01DX009 (ip), vehicle: water 102 % of control | endpoint: mean survival time, dose: 4.0 mg/kg/injection, schedule: Q01DX009 (ip), vehicle: water 91 % of control | endpoint: median survival time, dose: 0.5 mg/kg/injection, schedule: Q01DX009 (ip), vehicle: water 115 % of control

O=C(O)C1CCC(C(=O)O)CC1 (stereo unspecified)
inactive: [6] 95 % of control | [7] 91 % of control | [8] 87 % of control

CC(C)C/C(=N\Nc1ccccc1)c1ccccn1
inactive: [9] 101 % of control | [10] 100 % of control | [11] 97 % of control

COCC(=O)C(C(C)=O)C(c1ccccn1)C(C(C)=O)C(=O)COC (stereo unspecified)
inactive: endpoint: mean survival time, dose: 12.5 mg/kg/injection, schedule: Q04DX002 (ip), vehicle: saline with Tween-80 96 % of control | [12] 96 % of control | [13] 104 % of control

CC(=O)c1ccc(Oc2ccc(/C(C)=N\N=C(N)N)cc2)cc1
inactive: endpoint: mean survival time, dose: 25.0 mg/kg/injection, schedule: Q04DX003 (ip), vehicle: saline 100 % of control | endpoint: mean survival time, dose: 50.0 mg/kg/injection, schedule: Q04DX003 (ip), vehicle: saline 108 % of control | [1] 100 % of control | [2] 112 % of control

[N-]=[N+]=NC1CC(n2ccc(=O)[nH]c2=O)OC1COC(c1ccccc1)(c1ccccc1)c1ccccc1 (stereo unspecified)
inactive: endpoint: median survival time, dose: 12.5 mg/kg/injection, schedule: Q01DX005 (ip), vehicle: saline with Tween-80 96 % of control | endpoint: median survival time, dose: 25.0 mg/kg/injection, schedule: Q01DX005 (ip), vehicle: saline with Tween-80 101 % of control | endpoint: median survival time, dose: 50.0 mg/kg/injection, schedule: Q01DX005 (ip), vehicle: saline with Tween-80 94 % of control | endpoint: median survival time, dose: 100.0 mg/kg/injection, schedule: Q01DX005 (ip), vehicle: saline with Tween-80 95 % of control | endpoint: median survival time, dose: 200.0 mg/kg/injection, schedule: Q01DX005 (ip), vehicle: saline with Tween-80 91 % of control

Cc1ccc(P(=S)(c2ccccc2)c2ccc(C)c3ccccc23)c2ccccc12
inactive: [9] 97 % of control | [10] 91 % of control | [11] 93 % of control

N#CSc1ccc2c(ccn2C2OCC(O)C(O)C2O)c1 (stereo unspecified)
inactive: endpoint: mean survival time, dose: 12.5 mg/kg/injection, schedule: Q01DX005 (ip), vehicle: other 93 % of control | endpoint: mean survival time, dose: 25.0 mg/kg/injection, schedule: Q01DX005 (ip), vehicle: other 93 % of control | endpoint: mean survival time, dose: 50.0 mg/kg/injection, schedule: Q01DX005 (ip), vehicle: other 101 % of control

Cc1cccc(C)c1Nc1n[nH]c(=S)s1
inactive: endpoint: mean survival time, dose: 100.0 mg/kg/injection, schedule: Q01DX001 (ip), vehicle: Klucel (hydroxypropylcellulose) (HPC) 97 % of control | endpoint: mean survival time, dose: 200.0 mg/kg/injection, schedule: Q01DX001 (ip), vehicle: Klucel (hydroxypropylcellulose) (HPC) 101 % of control | endpoint: mean survival time, dose: 400.0 mg/kg/injection, schedule: Q01DX001 (ip), vehicle: Klucel (hydroxypropylcellulose) (HPC) 101 % of control

CCOC(=O)C(Cc1c[nH]c2ccccc12)(NC(C)=O)C(=O)OCC
inactive: [3] 98 % of control | [4] 96 % of control | [5] 104 % of control

Fc1c(F)c(F)c(OP2(Oc3c(F)c(F)c(F)c(F)c3F)=NP(Oc3c(F)c(F)c(F)c(F)c3F)(Oc3c(F)c(F)c(F)c(F)c3F)=NP(Oc3c(F)c(F)c(F)c(F)c3F)(Oc3c(F)c(F)c(F)c(F)c3F)=N2)c(F)c1F
inactive: [6] 103 % of control | [3] 98 % of control | [7] 101 % of control | [4] 95 % of control | [8] 95 % of control | [5] 98 % of control

O=NNc1ccccn1
active: endpoint: median survival time, dose: 12.5 mg/kg/injection, schedule: Q01DX005 (ip), vehicle: saline 160 % of control | endpoint: median survival time, dose: 25.0 mg/kg/injection, schedule: Q01DX005 (ip), vehicle: saline 184 % of control and 187 % of control
inactive: endpoint: mean survival time, dose: 8.0 mg/kg/injection, schedule: Q04DX003 (ip), vehicle: saline 114 % of control | endpoint: median survival time, dose: 0.78 mg/kg/injection, schedule: Q01DX009 (ip), vehicle: saline 104 % of control | endpoint: median survival time, dose: 1.56 mg/kg/injection, schedule: Q01DX005 (ip), vehicle: saline 107 % of control | endpoint: median survival time, dose: 1.56 mg/kg/injection, schedule: Q01DX009 (ip), vehicle: saline 106 % of control | endpoint: median survival time, dose: 3.12 mg/kg/injection, schedule: Q01DX005 (ip), vehicle: saline 117 % of control and 110 % of control | endpoint: median survival time, dose: 3.12 mg/kg/injection, schedule: Q01DX009 (ip), vehicle: saline 110 % of control | endpoint: median survival time, dose: 3.13 mg/kg/injection, schedule: Q01DX005 (ip), vehicle: saline 122 % of control | endpoint: median survival time, dose: 6.25 mg/kg/injection, schedule: Q01DX005 (ip), vehicle: saline 117 % of control | endpoint: median survival time, dose: 6.25 mg/kg/injection, schedule: Q01DX009 (ip), vehicle: saline 119 % of control | endpoint: median survival time, dose: 50.0 mg/kg/injection, schedule: Q01DX005 (ip), vehicle: saline 96 % of control and 103 % of control

c1ccc(N(c2ccccn2)c2ccccn2)nc1
inactive: [12] 101 % of control | [13] 101 % of control | endpoint: mean survival time, dose: 100.0 mg/kg/injection, schedule: Q04DX002 (ip), vehicle: saline with Tween-80 97 % of control | endpoint: mean survival time, dose: 200.0 mg/kg/injection, schedule: Q04DX002 (ip), vehicle: saline with Tween-80 97 % of control

CC(=O)ON(C(C)=O)c1ccc(C(N)=O)cc1
inactive: endpoint: median survival time, dose: 25.0 mg/kg/injection, schedule: Q01DX009 (ip), vehicle: saline with Tween-80 103 % of control | endpoint: median survival time, dose: 50.0 mg/kg/injection, schedule: Q01DX009 (ip), vehicle: saline with Tween-80 100 % of control | endpoint: median survival time, dose: 100.0 mg/kg/injection, schedule: Q01DX009 (ip), vehicle: saline with Tween-80 101 % of control | endpoint: median survival time, dose: 200.0 mg/kg/injection, schedule: Q01DX009 (ip), vehicle: saline with Tween-80 103 % of control | endpoint: median survival time, dose: 400.0 mg/kg/injection, schedule: Q01DX009 (ip), vehicle: saline with Tween-80 108 % of control

CCCCOC(=O)c1ccccn1
inactive: [14] 101 % of control | [6] 95 % of control | [7] 98 % of control

CC(C)(C)c1cccc(OS(=O)(=O)c2cccc([N+](=O)[O-])c2)c1
inactive: [6] 94 % of control | [7] 94 % of control | [8] 94 % of control

O=P(CCC(O)c1ccccc1)(c1ccccc1)c1ccccc1 (stereo unspecified)
inactive: [14] 96 % of control | [6] 92 % of control | [3] 97 % of control | [4] 87 % of control
